Test results taken from PubChem BioAssay (NCI).
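Following 48 hours of exposure in 96-well plates, responses at five concentrations were used to interpolate endpoints linearly. TGI is the concentration that stops growth completely.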

What was measured:
Experiment in all cases: DTP human tumour cell line panel, 48 h
[1] = tested on: RXF 393 renal
[2] = tested on: NCI/ADR-RES ovarian
[3] = tested on: HCT-15 colon
[4] = tested on: SK-MEL-2 melanoma
[5] = tested on: K-562 leukemia
[6] = tested on: OVCAR-3 ovarian
[7] = tested on: MALME-3M melanoma
[8] = tested on: 786-0 renal
[9] = tested on: UO-31 renal
[10] = tested on: SK-MEL-28 melanoma
[11] = tested on: SNB-19 CNS
[12] = tested on: RPMI-8226 leukemia
[13] = tested on: SNB-75 CNS
[14] = tested on: HS 578T breast
[15] = tested on: HOP-62 NSCLC
[16] = tested on: DU-145 prostate
[17] = tested on: BT-549 breast
[18] = tested on: COLO 205 colon
[19] = tested on: T-47D breast
[20] = tested on: PC-3 prostate
[21] = tested on: SF-539 CNS
[22] = tested on: IGROV1 ovarian
[23] = tested on: MDA-N
[24] = tested on: HT29 colon
[25] = tested on: ACHN renal
[26] = tested on: SK-MEL-5 melanoma
[27] = tested on: OVCAR-8 ovarian
[28] = tested on: HOP-92 NSCLC
[29] = tested on: SF-295 CNS
[30] = tested on: UACC-257 melanoma
[31] = tested on: HL-60(TB) leukemia
[32] = tested on: EKVX NSCLC
[33] = tested on: SW-620 colon
[34] = tested on: M14 melanoma
[35] = tested on: SR leukemia
[36] = tested on: A498 renal
[37] = tested on: A549 NSCLC
[38] = tested on: MDA-MB-231 breast
[39] = tested on: SF-268 CNS
[40] = tested on: SK-OV-3 ovarian
[41] = tested on: U251 CNS
[42] = tested on: HCT-116 colon
[43] = tested on: MCF7 breast
[44] = tested on: MOLT-4 leukemia
[45] = tested on: NCI-H226 lung
[46] = tested on: CCRF-CEM leukemia
[47] = tested on: SN12C renal
[48] = tested on: NCI-H522 lung
[49] = tested on: OVCAR-5 ovarian
[50] = tested on: UACC-62 melanoma
[51] = tested on: TK-10 renal
[52] = tested on: NCI-H460 lung
[53] = tested on: LOX IMVI melanoma
[54] = tested on: KM12 colon
[55] = tested on: CAKI-1 renal
[56] = tested on: HCC-2998 colon
[57] = tested on: OVCAR-4 ovarian
[58] = tested on: NCI-H23 lung
[59] = tested on: MDA-MB-435

Measured: TGI

Cc1c(C)c(C)c(CC2(C)CSC2)c(CC2(C)CSC2)c1C
> 100 µM: [1] | [2] | [3] | [4] | [5] | [6] | [7] | [8] | [9] | [10] | [11] | [12] | [13] | [14] | [15] | [16] | [17] | [18] | [19] | [20] | [21] | [22] | [23] | [24] | [25] | [26] | [27] | [28] | [29] | [30] | [31] | [32] | [33] | [34] | [35] | [36] | [37] | [38] | [39] | [40] | [41] | [42] | [43] | [44] | [45] | [46] | [47] | [48] | [49] | [50] | [51] | [52] | [53]

Cc1cc(O)c2c(c1O)C(=O)c1cccc(O)c1C2=O
> 100 µM: [1] | [2] | [3] | [4] | [54] | [5] | [6] | [8] | [9] | [10] | [11] | [12] | [13] | [14] | [15] | [16] | [55] | [17] | [56] | [19] | [20] | [21] | [22] | [23] | [24] | [25] | [57] | [26] | [27] | [28] | [29] | [30] | [31] | [32] | [33] | [34] | [37] | [38] | [39] | [40] | [41] | [42] | [43] | [45] | [46] | [47] | [48] | [49] | [58] | [50] | [51] | [52] | [59] | [53]

CC(C)(C)c1cc(-c2cc(C(C)(C)C)[nH]n2)n[nH]1
> 100 µM: [1] | [3] | [4] | [5] | [6] | [7] | [8] | [9] | [10] | [11] | [12] | [14] | [15] | [16] | [55] | [17] | [56] | [18] | [19] | [20] | [21] | [22] | [23] | [24] | [25] | [57] | [26] | [28] | [29] | [30] | [31] | [32] | [33] | [34] | [35] | [36] | [37] | [38] | [39] | [40] | [41] | [42] | [43] | [44] | [45] | [46] | [47] | [48] | [49] | [58] | [50] | [51] | [52] | [59] | [53]
